In article PMC12610274, “Identification of Marrubiin as a Cathepsin C Inhibitor for Treating Rheumatoid Arthritis” (Molecules, 2025):

Key:
intracellular CTSC = target: T1, intracellular CTSC (Homo sapiens, UniProt P53634); experiment: CTSC cell-based assay using the U937 cell line; settings: read-out: Cell-Based Enz (IC50: nM)
T1 construct: endogenous in cells; host or cells: U937
Procedure: Cell-based CTSC enzymatic activity assays were performed in 96-well clear-bottom black microplates. […] The detection substrate, H-Gly-Arg-AFC, was diluted to 100 µM in serum-free medium and stored for later use. U937 cells in the logarithmic growth phase were harvested, washed with PBS, and counted. A single-cell suspension was prepared at a density of 1.0 × 10^6 cells/mL using serum-free medium. 30 µL of cell suspension was seeded into each well of the 96-well plate. To the test wells, 10 µL of the compound working solution was added, while 10 µL of serum-free medium was added to the control wells. The plate was pre-incubated in a cell culture incubator at 37 °C for 3 h. Subsequently, 10 µL of H-Gly-Arg-AFC was added to initiate the enzymatic reaction, and the plate was further incubated at 37 °C for 1 h. Fluorescence measurements were performed using a multimode microplate reader at excitation/emission wavelengths of 400/505 nm. Each group of tests was independently repeated at least 3 times, and IC50 values were calculated using SPSS 10.0.

[1] = Cytotoxicity assay, U937 cell line; assay type: cell-based; settings: human, U937 cells
Procedure: (§1) RAW264.7 cells and U937 cells in the logarithmic growth phase were counted and diluted, and the concentrations of the single-cell suspensions of the two types of cells were adjusted to 5 × 10^4 cells/mL and 3 × 10^4 cells/mL, respectively. After thorough mixing, the cells were seeded into a 96-well plate, with 100 μL of cell suspension added to each well. Prepare the working solution of test compounds using the corresponding medium as the solvent, with the concentration of working solution being 2 times the final test concentration (2.5 μM, 5 μM, 10 μM, 20 μM, and 40 μM). Twenty-four hours after cell seeding, the compound working solutions were added to the compound test wells, and the same volume of medium was added to the negative control wells, followed by continuous incubation for another 24 h. Only the wells with the same volume but without cells served as the blank control group. The CellTiter-Lumi™ luminescent cell viability assay kit (Beyotime Biotechnology, Shanghai, China, C0065XL) was used to detect cell viability according to the standard operating procedures. Each group of tests was independently repeated at least 3 times, and IC50 values were calculated using SPSS 10.0.

[2] = Cytotoxicity assay, RAW264.7 cell line; assay type: cell-based; settings: mouse, RAW264.7 cells
Procedure: as §1

CTSC = CTSC (Homo sapiens, UniProt P53634); experiment: Human recombinant CTSC isolated enzyme assay; assay type: biochemical; parameters: purchased R&D Systems; settings: human recombinant CTSC, cell-free, 12-point dose-response; read-out: CTSC Enz (IC50: nM)
Procedure: Both recombinant CTSL and CTSC for in vitro cell-free-based enzymatic activity assay can be purchased from R&D Systems (Minneapolis, MN, USA), a biotechnology company. According to the standardized procedures and material ratios provided by R&D Systems, prepare the activation solution (25 mM MES + 5 mM DTT, pH 6.0) and the assay solution (25 mM MES + 50 mM NaCl + 5 mM DTT, pH 6.0) in advance for later use. Dilute the detection substrate H-Gly-Arg-AMC to a 200 µM solution with the assay solution for standby. Prepare the working solution of compounds to be tested using the assay solution, with the concentration of working solution being 10 times the final test concentration. Dilute CTSC and CTSL, respectively, with cold activation solution. Thoroughly mix the two activation solutions containing the proteins to achieve final concentrations of 300 nM for CTSL and 440 nM for CTSC. After co-incubation for 1 h, the activated CTSC treated with CTSL can be used for the enzymatic activity inhibition efficacy test of compounds. Dilute the activated CTSC to 4.4 nM with cold assay buffer. Incubate 4 μL of the activated CTSC with 1 μL of the compound working solution (test group) or 1 μL of blank assay solution (control group) at room temperature for 3 h. Then, add 5 μL of the detection substrate to achieve a final concentration of 100 μM. Mix 5 µL each of the assay solution and the substrate solution as the blank group. After 1 h, the absorbance of detection substrate was measured using a multifunctional microplate reader at excitation/emission wavelengths of 380 nm/460 nm. The inhibitory efficacy of molecules on enzyme activity was calculated based on the absorbance difference between test group and control group. […] Each group of tests mentioned above was independently repeated at least 3 times, and IC50 values were calculated using SPSS 10.0.

T1 sequence (P53634 25-463): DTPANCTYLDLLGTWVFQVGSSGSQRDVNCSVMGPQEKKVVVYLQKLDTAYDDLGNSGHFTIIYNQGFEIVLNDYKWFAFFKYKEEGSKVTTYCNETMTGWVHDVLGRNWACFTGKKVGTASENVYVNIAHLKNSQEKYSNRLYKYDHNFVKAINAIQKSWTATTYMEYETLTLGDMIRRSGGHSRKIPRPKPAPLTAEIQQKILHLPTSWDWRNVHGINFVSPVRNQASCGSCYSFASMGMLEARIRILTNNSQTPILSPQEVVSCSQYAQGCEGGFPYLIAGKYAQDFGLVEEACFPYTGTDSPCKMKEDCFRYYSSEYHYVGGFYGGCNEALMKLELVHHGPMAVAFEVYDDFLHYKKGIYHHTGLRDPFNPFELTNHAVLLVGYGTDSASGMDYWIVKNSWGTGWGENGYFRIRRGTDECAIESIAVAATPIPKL
CTSC, sequence (P53634 25-134 limits assumed): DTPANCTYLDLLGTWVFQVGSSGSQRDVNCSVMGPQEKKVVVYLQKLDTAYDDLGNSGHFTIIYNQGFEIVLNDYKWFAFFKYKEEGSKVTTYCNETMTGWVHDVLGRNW
CTSC, sequence (P53634 231-394 limits assumed): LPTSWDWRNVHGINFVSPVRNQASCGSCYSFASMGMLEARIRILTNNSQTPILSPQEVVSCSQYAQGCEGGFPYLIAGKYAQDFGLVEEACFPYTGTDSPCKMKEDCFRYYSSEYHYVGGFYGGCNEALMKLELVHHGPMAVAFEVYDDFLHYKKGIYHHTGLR
CTSC, sequence (P53634 395-463 limits assumed): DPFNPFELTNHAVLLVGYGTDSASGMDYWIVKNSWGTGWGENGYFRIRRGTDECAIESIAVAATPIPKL

| IC50 (intracellular CTSC) [nM] | IC50 (CTSC) [nM] | Structure (SMILES) | IC50 at 24 h [1] [µM] | IC50 at 24 h [2] [µM] |
| --- | --- | --- | --- | --- |
| > 5000 | 1101 ± 2 | N[C@H]1CONC1=O [L-Cycloserine, L-cycloserine] | > 10 | > 10 |
| > 5000 | 125 ± 2.9 | CC1(C)CC[C@]2(C(=O)O)[C@H](O)C[C@]3(C)C(=CC[C@@H]4[C@@]5(C)CC[C@H](O)[C@@](C)(C=O)[C@@H]5CC[C@]43C)[C@@H]2C1 [Quillaic acid, quillaic acid] | > 10 | > 10 |

| Structure (SMILES) | IC50 (intracellular CTSC) [nM] | IC50 (CTSC) [nM] | IC50 at 24 h [1] [µM] | IC50 at 24 h [2] [µM] |
| --- | --- | --- | --- | --- |
| CN1C2CC(O)CC1C1OC12 (stereo not drawn) [Scopine, scopine] | 337 ± 1.8 | 135 ± 4.7 | > 10 | > 10 |
